This note sets out measurements from patent US20150274787A1, “METHOD FOR RECOMBINANT PRODUCTION OF LABYRINTHOPEPTINS AND FUNCTIONAL DERIVATIVES THEREOF” (priority 2011, published 2015).

*1 amine or outer side, *2 acyl side, *3 side chain or, on linkers, in order; H or OH if unused. Where a SMILES comes first, the peptide text is derived from it. Bridges are numbered along the chain shown (N, C = ends). Where no end group is shown, it is not given here. [ ]: non-standard residue; d: D form. The star is where a group is joined. X1 = NC1=N[C@@H]([C@H](N[*:1])C(=O)[*:2])C[C@H](O)N1; ΔAla(Z-3-ureido) = NC(=O)N/C=C(\N)C(=O)O; β3hOrn = NCCC[C@H](N)CC(=O)*; Dap = NC[C@H](N)C(=O)O

One assay has as its system A. namibiensis. Briefly: Testing selection markers (antibiotic resistance) suitable for genetic manipulations of A. namibiensis. On Growth after 4 days: key: −: no growth; +: slight growth; ++: medium growth; +++: strong growth. On Growth after 7 days: key: −: no growth; +: slight growth; ++: medium growth; +++: strong growth. The following applies: for Growth after 4 days / Growth after 7 days: A. namibiensis. In kind it is cell-based, Actinomadura namibiensis. As for the experimental part: An apramycin resistance gene was used as selectable marker for vectors used in this study because from all eight tested antibiotics A. namibiensis was […] to apramycin (50 μg/ml). Initially for establishing a way in which DNA can be introduced into A. namibiensis the typical cloning vectors for Streptomyces strains were used. Plasmid pUWLoriT which can replicate autonomously in Streptomyces and plasmid pSET152 which can integrate site-specifically at the bacteriophage ΦC31 attachment site (18) (7) were used. […] Although Actinomaduras and Streptomyces are related it is still possible that origin of replication (ori) for Streptomyces is not recognized by A. namibiensis (9). Description of similar difficulties can be found in the literature (17). This led to the use of vectors harboring replicons of Actinomadura strains: pSETermEΔHindIII_oriCLL4, pK18mobXylE_oripCLL4 and pCLL4_ori_apra. Also a non-replicating plasmid pK18mob2 with a fragment coding for the LabKC modifying enzyme was used for transformation of A. namibiensis.

The target in another assay is T1, human P2X4 receptor (Homo sapiens, UniProt Q99571).
T1 construct: expressed in transfected cells; host or cells: HEK cells (hP2X4_HEK-FITR), expression induced with doxycyclin
T1 sequence (Q99571 1-388): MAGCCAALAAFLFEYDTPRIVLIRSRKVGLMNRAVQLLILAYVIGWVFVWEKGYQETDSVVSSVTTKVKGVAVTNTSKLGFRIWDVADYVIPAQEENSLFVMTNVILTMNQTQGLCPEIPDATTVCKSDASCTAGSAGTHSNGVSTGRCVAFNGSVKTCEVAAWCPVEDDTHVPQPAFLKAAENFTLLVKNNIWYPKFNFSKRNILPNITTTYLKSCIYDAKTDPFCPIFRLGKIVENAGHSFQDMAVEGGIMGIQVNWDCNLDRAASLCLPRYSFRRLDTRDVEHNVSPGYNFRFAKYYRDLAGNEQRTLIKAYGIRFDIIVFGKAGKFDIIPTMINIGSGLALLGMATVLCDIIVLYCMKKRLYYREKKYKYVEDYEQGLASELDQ
As to the kind of experiment: IC50 determination by patch clamp on hP2X4_HEK-FITR cell line (in vitro anti-pain assay). In kind it is cell-based. Conditions: recombinant human P2X4 in HEK cells, 10 μM ATP, holding potential −60 mV, 0.3 to 90 μM. The text has this: Evaluation of anti-pain activity of labyrinthopeptin A2 and its structural analogs LabA2_L14A and LabA2 F15A in an in vitro assay (IC50 determination of LabA2, LabA2_L14A and LabA2_F15A on hP2X4_HEK-FITR-cell line) The use of labyrinthopeptin A2 and its derivatives, in particular LabA2_L14A and LabA2_F15A, as analgesics was investigated for neuropathic pain based on their inhibitory effects on P2X4 receptors (Nagata K et al., 2009).
Recombinant human P2X4 receptor was expressed in HEK cells (hP2X4_HEK-FITR). hP2X4 expression was induced with doxycyclin 1 μg/ml for 24 h to 48 h. The patch clamp experiment has been performed under standard conditions using an axopatch-200B amplifier and pClamp v10 acquisition software (Axon Instruments Inc, Foster City, Calif., USA). Cells were continuously superfused with an external solution consisting of (in mM) 130 CsCl, 4 NaCl, 1 MgCl2, 1 CaCl2, 10 EGTA (free Ca^2+=6.7 nM) and 10 HEPES (pH 7.4 with CsOH). This was replaced with a […] external solution consisting of (in mM) 145 NaCl, 4 KCl, 2 CaCl2, 1 MgCl2 and 10 HEPES (pH 7.4 with NaOH). 250 ms application of 10 μM ATP (Sigma) every 10 sec was performed. […] Currents were measured at a holding potential of −60 mV.
Results were calculated using Origin7.5 software (FIG. 27).
A general note: The patch-clamp technique gives a direct electrical read-out from membranes.

The target in assay [1] is T2, Recombinant human P2X4 receptor (human, UniProt Q99571 1-388).
T2 sequence (looked up): T1 sequence (Q99571 1-388)
As to the kind of experiment: cell-based or functional assay.

`CN[C@@H]1[C@@H](O[C@H]2O[C@H](CO)[C@@H](N)[C@H](O)[C@H]2O)OC2C[C@@H](N)[C@@H](O[C@H]3[C@H](O)[C@@H](O)[C@H](N)C[C@@H]3N)OC2[C@@H]1O` (stereo partly shown) [Apramycin]: in the assay on A. namibiensis (50 μg/ml), the “sensitivity of A. namibiensis to antibiotic” value is listed as “sensitive”. In the assay with A. namibiensis (antibiotic conc. 25 μg/ml), the “Growth after 4 days” value is reported as “−” and the “Growth after 7 days” value is “+”. In addition, in the assay on A. namibiensis (antibiotic conc. 50 μg/ml), the “Growth after 4 days” value is “−” and the “Growth after 7 days” value is recorded as “−”.
For the molecule `NC[C@H]1O[C@H](O[C@H]2[C@H](O)[C@@H](O[C@H]3O[C@H](CO)[C@@H](O)[C@H](N)[C@H]3O)[C@H](N)C[C@@H]2N)[C@H](O)[C@@H](O)[C@@H]1O` [Kanamycin], in the assay on A. namibiensis (antibiotic conc. 50 μg/ml), the “Growth after 4 days” value was “+++” and the “Growth after 7 days” value is on record as “+++”.
Take `C[C@@H]1O[C@@H]1P(=O)(O)O` [Phosphomycin]: in the assay with A. namibiensis (antibiotic conc. 400 μg/ml), the “Growth after 4 days” value is listed as “+++” and the “Growth after 7 days” value is recorded as “+++”.
For `CN[C@@H]1[C@H](O)[C@H](NC)[C@H]2O[C@@]3(O)C(=O)C[C@@H](C)O[C@H]3O[C@@H]2[C@H]1O` [Spectinomycin], in the assay with A. namibiensis (antibiotic conc. 100 μg/ml), the “Growth after 4 days” value is “+++” and the “Growth after 7 days” value is recorded as “+++”.
In the case of `[H]/N=C(/N)N[C@H]1[C@H](O)[C@@H](O)[C@H](O[C@@H]2O[C@@H](C)[C@](O)(C=O)[C@H]2O[C@@H]2O[C@@H](CO)[C@H](O)[C@@H](O)[C@@H]2NC)[C@@H](N/C(N)=N\[H])[C@@H]1O` [Streptomycin], in the assay on A. namibiensis (antibiotic conc. 30 μg/ml), the “Growth after 4 days” value was “+” and the “Growth after 7 days” value was “++”.
As for `C=C(NC(=O)C(=C)NC(=O)c1csc(C2=N[C@@H]3c4csc(n4)[C@H]4NC(=O)c5csc(n5)[C@H]([C@](C)(O)[C@@H](C)O)NC(=O)[C@H]5CSC(=N5)/C(=C/C)NC(=O)[C@H]([C@@H](C)O)NC(=O)c5csc(n5)[C@]3(CC2)NC(=O)[C@H](C)NC(=O)C(=C)NC(=O)[C@H](C)NC(=O)[C@H]([C@@H](C)CC)N[C@@H]2C=Cc3c([C@H](C)O)cc(nc3[C@H]2O)C(=O)O[C@@H]4C)n1)C(N)=O` [Thiostrepton], in the assay on A. namibiensis (antibiotic conc. 25 μg/ml), the “Growth after 4 days” value is “−” and the “Growth after 7 days” value is recorded as “+”. Also, the “sensitivity of A. namibiensis to antibiotic” value in the assay on A. namibiensis (concentration not given) is “not sensitive”.
On to `NCCC[C@H](N)CC(=O)N[C@H]1CNC(=O)[C@H]([C@H]2C[C@H](O)NC(N)=N2)NC(=O)/C(=C/NC(N)=O)NC(=O)[C@H](CO)NC(=O)[C@H](CO)NC1=O` [Viomycin] (β3hOrn-[Dap]SS[ΔAla(Z-3-ureido)][X1]; lactam 1-C), for which, in the assay on A. namibiensis (antibiotic conc. 30 μg/ml), the “Growth after 4 days” value is recorded as “+” and the “Growth after 7 days” value is listed as “+”.
In the case of Hydromycin, in the assay on A. namibiensis (antibiotic conc. 50 μg/ml), the “Growth after 4 days” value is on record as “++” and the “Growth after 7 days” value is “+++”.
For the molecule LabA2_F15A (SDWSLWECCSTGSLAACC), the “IC50 (concentration of a substance that blocks 50% of channels)” value with human P2X4 receptor is “could not be determined”.

B1: LabA2_L14A (peptide)
peptide: SDWSLWECCSTGSAFACC
modifications: thioether (positions not given here); not fully specified (residues 1, 4, 10, 13, bridges); also: labionin residues as in LabA2: methylene bridges between alpha-C atoms, places not given here
With B1, in assay [1], the “IC50 of inhibition of ATP-evoked currents (patch clamp, hP2X4_HEK-FITR cells)” value is 30 µM.
